Assay results: article PMC4620497 (Scientific Reports, 2015)

How the values were obtained:
[1] = target: T1, ABL1(T315I)-nonphosphorylated (Homo sapiens, UniProt P00519, T315I); test: KINOMEscan panel screen; assay type: binding; settings: read-out: Percent Control(%)
T1 construct: purchased DiscoveRx KINOMEscan (Ambit Biosciences)

ACVR1 = target: T2, ACVR1 (Homo sapiens, UniProt Q04771); test: KINOMEscan panel screen; assay type: binding; settings: read-out: Percent Control(%)
T2 construct: purchased DiscoveRx KINOMEscan (Ambit Biosciences)

ACVR2A = target: T3, ACVR2A (Homo sapiens, UniProt P27037); test: KINOMEscan panel screen; assay type: binding; settings: read-out: Percent Control(%)
T3 construct: purchased DiscoveRx KINOMEscan (Ambit Biosciences)
T3 sequence (P27037 20-513): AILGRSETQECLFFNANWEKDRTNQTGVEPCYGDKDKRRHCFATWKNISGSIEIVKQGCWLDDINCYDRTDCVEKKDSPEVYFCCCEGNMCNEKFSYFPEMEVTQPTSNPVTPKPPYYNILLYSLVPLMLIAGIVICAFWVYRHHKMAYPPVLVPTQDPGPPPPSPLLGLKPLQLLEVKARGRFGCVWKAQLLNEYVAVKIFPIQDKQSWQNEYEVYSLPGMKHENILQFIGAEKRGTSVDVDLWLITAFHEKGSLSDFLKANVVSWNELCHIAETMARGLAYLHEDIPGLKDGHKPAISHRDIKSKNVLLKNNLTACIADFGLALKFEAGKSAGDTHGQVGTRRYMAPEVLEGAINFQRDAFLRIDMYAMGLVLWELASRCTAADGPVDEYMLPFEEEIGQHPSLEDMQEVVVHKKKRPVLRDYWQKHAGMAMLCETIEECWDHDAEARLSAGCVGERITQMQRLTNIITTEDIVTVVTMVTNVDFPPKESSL

BRAF(V600E) = target: T4, BRAF(V600E) (Homo sapiens, UniProt P15056, V600E); test: KINOMEscan panel screen; assay type: binding; settings: read-out: Percent Control(%)
T4 construct: purchased DiscoveRx KINOMEscan (Ambit Biosciences)

CDC2L2 = target: T5, CDC2L2 (Homo sapiens, UniProt Q9UQ88); test: KINOMEscan panel screen; assay type: binding; settings: read-out: Percent Control(%)
T5 construct: purchased DiscoveRx KINOMEscan (Ambit Biosciences)

EPHB2 = target: T6, EPHB2 (Homo sapiens, UniProt P29323); test: KINOMEscan panel screen; assay type: binding; settings: read-out: Percent Control(%)
T6 construct: purchased DiscoveRx KINOMEscan (Ambit Biosciences)

FLT3-autoinhibited = target: T7, FLT3-autoinhibited (Homo sapiens, UniProt P36888); test: KINOMEscan panel screen; assay type: binding; settings: read-out: Percent Control(%)
T7 construct: purchased DiscoveRx KINOMEscan (Ambit Biosciences)
T7 sequence (P36888 564-993 limits assumed): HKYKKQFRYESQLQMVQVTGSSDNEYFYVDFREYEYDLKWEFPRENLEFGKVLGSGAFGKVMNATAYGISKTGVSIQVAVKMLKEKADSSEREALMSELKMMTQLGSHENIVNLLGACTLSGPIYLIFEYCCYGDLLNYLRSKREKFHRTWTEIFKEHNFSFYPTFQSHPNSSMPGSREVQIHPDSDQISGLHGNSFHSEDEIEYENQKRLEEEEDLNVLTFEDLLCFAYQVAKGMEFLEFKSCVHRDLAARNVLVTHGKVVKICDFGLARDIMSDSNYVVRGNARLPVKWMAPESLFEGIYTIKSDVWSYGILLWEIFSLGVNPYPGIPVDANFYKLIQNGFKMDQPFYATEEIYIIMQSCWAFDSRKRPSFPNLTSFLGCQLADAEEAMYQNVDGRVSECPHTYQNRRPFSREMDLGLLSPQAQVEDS

HASPIN = target: T8, HASPIN (Homo sapiens, UniProt Q8TF76); test: KINOMEscan panel screen; assay type: binding; settings: read-out: Percent Control(%)
T8 construct: purchased DiscoveRx KINOMEscan (Ambit Biosciences)
T8 sequence (Q8TF76 whole entry): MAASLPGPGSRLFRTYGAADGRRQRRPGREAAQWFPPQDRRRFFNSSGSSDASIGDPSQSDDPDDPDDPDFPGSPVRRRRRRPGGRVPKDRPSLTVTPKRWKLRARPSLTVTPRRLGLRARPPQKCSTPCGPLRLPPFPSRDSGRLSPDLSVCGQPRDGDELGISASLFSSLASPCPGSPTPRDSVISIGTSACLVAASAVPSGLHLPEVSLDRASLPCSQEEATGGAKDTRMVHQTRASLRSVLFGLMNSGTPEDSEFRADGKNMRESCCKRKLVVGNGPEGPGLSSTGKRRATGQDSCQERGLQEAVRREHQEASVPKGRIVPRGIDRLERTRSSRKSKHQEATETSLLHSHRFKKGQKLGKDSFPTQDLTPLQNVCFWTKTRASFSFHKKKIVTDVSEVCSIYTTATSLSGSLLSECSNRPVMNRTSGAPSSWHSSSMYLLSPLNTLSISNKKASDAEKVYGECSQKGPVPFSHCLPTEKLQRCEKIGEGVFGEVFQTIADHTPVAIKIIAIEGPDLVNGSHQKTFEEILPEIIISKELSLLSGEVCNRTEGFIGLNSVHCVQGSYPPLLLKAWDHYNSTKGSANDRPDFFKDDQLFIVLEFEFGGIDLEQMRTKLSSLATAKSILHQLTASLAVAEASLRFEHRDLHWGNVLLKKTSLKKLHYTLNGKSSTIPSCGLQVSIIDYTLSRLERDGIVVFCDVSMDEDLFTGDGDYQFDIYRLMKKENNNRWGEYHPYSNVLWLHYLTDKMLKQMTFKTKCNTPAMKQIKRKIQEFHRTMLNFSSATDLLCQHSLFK

MAP3K3 = target: T9, MAP3K3 (Homo sapiens, UniProt Q99759); test: KINOMEscan panel screen; assay type: binding; settings: read-out: Percent Control(%)
T9 construct: purchased DiscoveRx KINOMEscan (Ambit Biosciences)

MAP4K3 = target: T10, MAP4K3 (Homo sapiens, UniProt Q8IVH8); test: KINOMEscan panel screen; assay type: binding; settings: read-out: Percent Control(%)
T10 construct: purchased DiscoveRx KINOMEscan (Ambit Biosciences)

MARK1 = target: T11, MARK1 (Homo sapiens, UniProt Q9P0L2); test: KINOMEscan panel screen; assay type: binding; settings: read-out: Percent Control(%)
T11 construct: purchased DiscoveRx KINOMEscan (Ambit Biosciences)

MEK1 = target: T12, MEK1 (Homo sapiens, UniProt Q02750); test: KINOMEscan panel screen; assay type: binding; settings: read-out: Percent Control(%)
T12 construct: purchased DiscoveRx KINOMEscan (Ambit Biosciences)

MEK5 = target: T13, MEK5 (Homo sapiens, UniProt Q13163); test: KINOMEscan panel screen; assay type: binding; settings: read-out: Percent Control(%)
T13 construct: purchased DiscoveRx KINOMEscan (Ambit Biosciences)

PIK3CA(M1043I) = target: T14, PIK3CA(M1043I) (Homo sapiens, UniProt P42336, M1043I); test: KINOMEscan panel screen; assay type: binding; settings: read-out: Percent Control(%)
T14 construct: purchased DiscoveRx KINOMEscan (Ambit Biosciences)

RIPK2 = target: T15, RIPK2 (Homo sapiens, UniProt O43353); test: KINOMEscan panel screen; assay type: binding; settings: read-out: Percent Control(%)
T15 construct: purchased DiscoveRx KINOMEscan (Ambit Biosciences)
T15 sequence (O43353 whole entry): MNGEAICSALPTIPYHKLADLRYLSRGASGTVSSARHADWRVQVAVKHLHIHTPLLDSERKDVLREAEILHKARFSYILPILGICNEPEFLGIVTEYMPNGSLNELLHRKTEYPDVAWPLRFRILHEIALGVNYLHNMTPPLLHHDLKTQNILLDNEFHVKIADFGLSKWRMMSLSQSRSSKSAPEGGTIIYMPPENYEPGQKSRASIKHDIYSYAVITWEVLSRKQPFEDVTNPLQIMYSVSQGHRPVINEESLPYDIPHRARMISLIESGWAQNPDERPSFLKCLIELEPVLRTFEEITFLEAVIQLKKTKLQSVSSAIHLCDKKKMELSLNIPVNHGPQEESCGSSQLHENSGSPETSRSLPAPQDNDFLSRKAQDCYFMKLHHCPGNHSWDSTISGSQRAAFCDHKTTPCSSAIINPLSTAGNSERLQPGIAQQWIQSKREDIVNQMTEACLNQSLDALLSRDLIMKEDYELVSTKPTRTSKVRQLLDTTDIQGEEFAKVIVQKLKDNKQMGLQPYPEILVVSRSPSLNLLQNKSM

ROCK1 = ROCK1 (Homo sapiens, UniProt Q13464); test: KINOMEscan panel screen; assay type: binding; settings: read-out: Percent Control(%)
Chain of ROCK1 (Q13464 whole entry): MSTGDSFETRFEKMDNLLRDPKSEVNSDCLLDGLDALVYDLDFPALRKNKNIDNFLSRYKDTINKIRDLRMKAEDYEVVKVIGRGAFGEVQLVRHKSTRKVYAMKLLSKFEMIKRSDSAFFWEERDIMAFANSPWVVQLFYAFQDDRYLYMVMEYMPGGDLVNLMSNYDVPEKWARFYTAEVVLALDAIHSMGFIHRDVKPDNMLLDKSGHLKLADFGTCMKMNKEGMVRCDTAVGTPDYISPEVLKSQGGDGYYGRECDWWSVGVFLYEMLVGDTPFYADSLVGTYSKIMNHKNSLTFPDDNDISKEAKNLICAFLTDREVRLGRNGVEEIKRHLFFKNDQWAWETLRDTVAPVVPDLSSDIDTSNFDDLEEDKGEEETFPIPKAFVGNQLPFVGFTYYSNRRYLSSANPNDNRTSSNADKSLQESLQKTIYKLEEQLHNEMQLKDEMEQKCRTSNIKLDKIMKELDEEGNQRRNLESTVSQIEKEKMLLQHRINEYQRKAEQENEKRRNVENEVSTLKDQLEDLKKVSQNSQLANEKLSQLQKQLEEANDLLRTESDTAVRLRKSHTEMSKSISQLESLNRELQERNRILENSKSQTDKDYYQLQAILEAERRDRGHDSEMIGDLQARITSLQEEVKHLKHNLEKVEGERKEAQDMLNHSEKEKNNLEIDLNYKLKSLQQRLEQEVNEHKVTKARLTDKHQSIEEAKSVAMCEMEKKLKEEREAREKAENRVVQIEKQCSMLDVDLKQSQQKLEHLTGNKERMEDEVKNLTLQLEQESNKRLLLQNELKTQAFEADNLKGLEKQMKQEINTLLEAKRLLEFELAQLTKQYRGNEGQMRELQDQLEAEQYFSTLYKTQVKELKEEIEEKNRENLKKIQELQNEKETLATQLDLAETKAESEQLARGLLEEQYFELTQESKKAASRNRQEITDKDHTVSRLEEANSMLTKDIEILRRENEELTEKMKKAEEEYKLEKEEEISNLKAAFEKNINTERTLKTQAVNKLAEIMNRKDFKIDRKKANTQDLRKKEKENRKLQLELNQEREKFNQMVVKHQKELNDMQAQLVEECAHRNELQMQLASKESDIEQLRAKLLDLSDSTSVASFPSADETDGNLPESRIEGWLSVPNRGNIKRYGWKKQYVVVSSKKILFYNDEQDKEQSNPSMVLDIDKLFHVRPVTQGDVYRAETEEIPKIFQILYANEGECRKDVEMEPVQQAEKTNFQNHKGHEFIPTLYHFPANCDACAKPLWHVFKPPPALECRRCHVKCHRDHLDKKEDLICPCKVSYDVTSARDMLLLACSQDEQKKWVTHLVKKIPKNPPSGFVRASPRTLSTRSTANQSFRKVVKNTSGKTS

[2] = target: T16, RPS6KA4(Kin.Dom.2-C-terminal) (Homo sapiens, UniProt O75676); test: KINOMEscan panel screen; assay type: binding; settings: read-out: Percent Control(%)
T16 construct: RPS6KA4(Kin.Dom.2-C-terminal); purchased DiscoveRx KINOMEscan (Ambit Biosciences)
T16 sequence (O75676 411-674 limits assumed): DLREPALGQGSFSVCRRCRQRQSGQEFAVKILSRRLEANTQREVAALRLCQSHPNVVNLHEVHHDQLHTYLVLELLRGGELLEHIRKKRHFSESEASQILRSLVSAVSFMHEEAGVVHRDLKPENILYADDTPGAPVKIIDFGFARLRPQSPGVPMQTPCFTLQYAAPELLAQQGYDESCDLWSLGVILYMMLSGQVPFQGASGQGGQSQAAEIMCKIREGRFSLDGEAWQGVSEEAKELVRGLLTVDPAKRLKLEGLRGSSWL

TAOK1 = target: T17, TAOK1 (Homo sapiens, UniProt Q7L7X3); test: KINOMEscan panel screen; assay type: binding; settings: read-out: Percent Control(%)
T17 construct: purchased DiscoveRx KINOMEscan (Ambit Biosciences)
T17 sequence (Q7L7X3 whole entry): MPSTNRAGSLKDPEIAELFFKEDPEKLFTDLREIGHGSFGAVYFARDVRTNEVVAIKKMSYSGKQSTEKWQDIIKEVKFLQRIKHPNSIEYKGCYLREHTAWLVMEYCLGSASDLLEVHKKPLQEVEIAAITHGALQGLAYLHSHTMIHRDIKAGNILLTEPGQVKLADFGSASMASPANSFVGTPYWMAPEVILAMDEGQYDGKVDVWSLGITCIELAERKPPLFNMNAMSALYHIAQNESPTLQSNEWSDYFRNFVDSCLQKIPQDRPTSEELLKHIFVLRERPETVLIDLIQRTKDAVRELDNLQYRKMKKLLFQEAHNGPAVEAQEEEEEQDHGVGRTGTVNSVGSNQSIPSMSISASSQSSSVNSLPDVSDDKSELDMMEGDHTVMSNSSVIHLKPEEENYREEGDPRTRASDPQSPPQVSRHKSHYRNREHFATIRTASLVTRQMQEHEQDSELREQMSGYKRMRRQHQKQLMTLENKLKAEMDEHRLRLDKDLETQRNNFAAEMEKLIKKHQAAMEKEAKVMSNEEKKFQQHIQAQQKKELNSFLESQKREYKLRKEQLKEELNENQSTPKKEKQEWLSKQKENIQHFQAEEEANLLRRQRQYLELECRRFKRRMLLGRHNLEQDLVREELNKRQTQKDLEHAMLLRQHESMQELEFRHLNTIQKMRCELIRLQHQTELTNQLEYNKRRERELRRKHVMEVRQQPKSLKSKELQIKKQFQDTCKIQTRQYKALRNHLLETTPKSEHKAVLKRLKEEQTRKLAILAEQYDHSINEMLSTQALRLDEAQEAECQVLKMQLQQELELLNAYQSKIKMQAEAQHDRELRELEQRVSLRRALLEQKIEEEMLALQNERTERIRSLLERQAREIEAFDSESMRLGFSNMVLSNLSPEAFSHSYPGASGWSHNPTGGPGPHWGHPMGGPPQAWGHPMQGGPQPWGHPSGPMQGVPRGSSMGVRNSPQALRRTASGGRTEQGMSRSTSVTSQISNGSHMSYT

TNIK = target: T18, TNIK (Homo sapiens, UniProt Q9UKE5); test: KINOMEscan panel screen; assay type: binding; settings: read-out: Percent Control(%)
T18 construct: purchased DiscoveRx KINOMEscan (Ambit Biosciences)

[3] = system: MYC, CCND1, NKD1 transcripts in STF3a cells; test: Real-time qPCR of β-catenin target genes in STF3a cells; assay type: cell-based; settings: 24 h
zebrafish embryos = test: Zebrafish development experiment (posterior axis formation); assay type: in vivo; settings: added at 4hpf, observed after 24hpf
[4] = system: HSCs (LSK cells), WBC and RBC; test: Influence on normal HSCs and blood cells in Balb/c mice; assay type: in vivo, mouse; settings: Balb/c mice, 1, 3, 10 mg/kg/d orally for 21 days
Description: To examine whether SKLB-677 has influence on normal HSCs and normal blood cells, we performed an experiment using a Balb/c mouse model, in which Balb/c mice (n = 8 in each group) were treated with indicated concentrations of SKLB-677 for 21 days, followed by detections of the proportion of HSCs (immunophenotypically characterized as Lineage^−Sca-1^+ c-Kit^+ (LSK) cells), white blood cell (WBC) and red blood cell (RBC) counts. […]
were d etected usin g BD FACSAriaⅢflow c ytometer.
Isolation of murine Bone Marrow ( BM) cells.
Balb/c mice were grouped to 4 groups (4 female mice and 4 male mice p er group) and orally treated with 0, 1, 3, and 10m g/kg/ d SKLB -677 for 21 da ys . […]
Supplementary Figure S7.The influence of SKLB -677 on mouse normal HSC and blood cells (8 mice in each group) . a ,b, The mice were o rally treat ed with indicated concentr ations o f S K LB -677 for 21d, and then W BC and RBC were counted using a blood anal yzer instrument. ns, not statistically significant. c , Th e mice were orally treated with indicated do ses of SK LB-677 for 21d, and the blood marrow cells were collected for the detection of HSC (immunophenot ypicall y ch aracterized as Lineage-Sca-1+c-Kit+, LSK) populationusing corresponding antibodies. d, The statistical data of HSC numbers. ns, not statistically significant. […]

Ramos = test: MTT cell viability assay; settings: Homo sapiens, 72 h

## CC(C)(C)c1cc(NC(=O)Nc2ccc(Oc3ncnc4[nH]ncc34)c(F)c2)no1 [SKLB-677, 1-(4-(1H-pyrazolo[3,4-d]pyrimidin-4-yloxy)-3-fluorophenyl)-3-(5-tert-butylisoxazol-3-yl)urea]
[1]
  remaining binding at 10 µM: 3%
ACVR1
  remaining binding at 10 µM: 95%
ACVR2A
  remaining binding at 10 µM: 100%
BRAF(V600E)
  remaining binding at 10 µM: 0.05%
CDC2L2
  remaining binding at 10 µM: 53%
EPHB2
  remaining binding at 10 µM: 5.2%
FLT3-autoinhibited
  remaining binding at 10 µM: 1.2%
HASPIN
  remaining binding at 10 µM: 42%
MAP3K3
  remaining binding at 10 µM: 100%
MAP4K3
  remaining binding at 10 µM: 3.2%
MARK1
  remaining binding at 10 µM: 78%
MEK1
  remaining binding at 10 µM: 7.2%
MEK5
  remaining binding at 10 µM: 13%
PIK3CA(M1043I)
  remaining binding at 10 µM: 100%
RIPK2
  remaining binding at 10 µM: 0.75%
ROCK1
  remaining binding at 10 µM: 100%
[2]
  remaining binding at 10 µM: 78%
TAOK1
  remaining binding at 10 µM: 3.2%
TNIK
  remaining binding at 10 µM: 5.2%
[3]
  MYC, CCND1, and NKD1 transcripts: reduced
Zebrafish embryos
  embryo dorsalization: led to embryo dorsalization in a dose-dependent manner
[4]
  HSCs (LSK cells): not inhibited
  white and red blood counts: normal
Ramos
  IC50: 8.4 µM
